Counter-ions that a name gives are not always drawn.
Test system: cancer cell lines
Experiment: Growth inhibitory effects on the panel of cancer cell lines
Format: cell-based
Conditions: drug 10 μM, 72 hours, WST-1

Row | Compound | inhibition effect on different cancer cell lines (in words)
1 | CCCc1nc2c(C)cc(-c3nc4ccccc4n3C)cc2n1Cc1ccc(-c2ccccc2C(=O)O)cc1 [Telmisartan (Micardis), Telmisartan] | significant inhibition effect
2 | O=C1c2c(O)ccc(O)c2C(=O)c2c(NCCNCCO)ccc(NCCNCCO)c21 [Mitoxantrone Hydrochloride] | significant inhibition effect
3 | Cc1cccc(Nc2ccncc2S(=O)(=O)NC(=O)NC(C)C)c1 [Torsemide (Demadex), Torsemide] | significant inhibition effect
4 | N=C(N)NC(=O)c1nc(Cl)c(N)nc1N [Amiloride hydrochloride dihydrate] | significant inhibition effect
5 | CCCCc1ncc(/C=C(\Cc2cccs2)C(=O)O)n1Cc1ccc(C(=O)O)cc1 [Eprosartan Mesylate] | significant inhibition effect
6 | CCOc1nc2cccc(C(=O)OC(C)OC(=O)OC3CCCCC3)c2n1Cc1ccc(-c2ccccc2-c2nnn[nH]2)cc1 (stereo not shown) [Candesartan cilexetil (Atacand), Candesartan cilexetil] | significant inhibition effect
7 | COC(=O)[C@@H]1CC2=CC(=O)CC[C@]2(C)[C@@]23O[C@@H]2C[C@@]2(C)[C@@H](CC[C@@]24CCC(=O)O4)[C@H]13 [Eplerenone] | significant inhibition effect
8 | C[C@H](Cc1cc2c(c(C(N)=O)c1)N(CCCO)CC2)NCCOc1ccccc1OCC(F)(F)F [Silodosin (Rapaflo), Silodosin] | significant inhibition effect
9 | CCOC(=O)C1=C[C@@H](OC(CC)CC)[C@H](NC(C)=O)[C@@H](N)C1 [Oseltamivir phosphate (Tamiflu), Oseltamivir phosphate] | significant inhibition effect
10 | COc1ccc([C@@H]2Sc3ccccc3N(CCN(C)C)C(=O)[C@@H]2OC(C)=O)cc1 [Diltiazem HCl (Tiazac), Diltiazem HCl] | significant inhibition effect
11 | COc1ccc(C2C(=O)c3ccccc3C2=O)cc1 [Anisindione] | significant inhibition effect
12 | Nc1ccn([C@@H]2O[C@H](CO)[C@@H](O)[C@H]2O)c(=O)n1 [Cytidine] | significant inhibition effect
13 | CCNC(=O)CCC/C=C\C[C@@H]1[C@@H](/C=C/[C@@H](O)CCc2ccccc2)[C@H](O)C[C@@H]1O [Bimatoprost] | significant inhibition effect
14 | Almotriptan malate [Almotriptan malate (Axert)] | significant inhibition effect
15 | CCCc1nc(C(C)(C)O)c(C(=O)OCc2oc(=O)oc2C)n1Cc1ccc(-c2ccccc2-c2nnn[nH]2)cc1 [Olmesartan medoxomil (Benicar), Olmesartan medoxomil] | significant inhibition effect
16 | COC(=O)[C@H]1[C@H]2C[C@@H]3c4[nH]c5cc(OC)ccc5c4CCN3C[C@H]2C[C@@H](OC(=O)c2cc(OC)c(OC)c(OC)c2)[C@@H]1OC [Reserpine] | significant inhibition effect
17 | C[N+](C)(C)CC(O)CC(=O)O.[Cl-] (racemic) [DL-Carnitine hydrochloride] | significant inhibition effect

Row | Compound | inhibition effect on different cancer cell lines (in words)
18 | COc1cc2nc(N(C)CCCNC(=O)C3CCCO3)nc(N)c2cc1OC (stereo not shown) [Alfuzosin hydrochloride (Uroxatral), Alfuzosin hydrochloride] | significant inhibition effect
19 | CNCC(O)c1ccc(O)c(O)c1 (racemic) [DL-Adrenaline] | significant inhibition effect
20 | CC(C)NCC(O)COc1cccc2ccccc12 (stereo not shown) [Propranolol HCl] | significant inhibition effect
21 | CS(=O)(=O)Nc1ccc([N+](=O)[O-])cc1Oc1ccccc1 [Nimesulide] | significant inhibition effect
22 | CCC(CC)[C@H](NC(C)=O)[C@@H]1[C@H](O)[C@@H](C(=O)O)C[C@H]1N=C(N)N.O.O.O [Peramivir Trihydrate] | significant inhibition effect
23 | CNC[C@H](O)[C@@H](O)[C@H](O)[C@H](O)CO.CNC[C@H](O)[C@@H](O)[C@H](O)[C@H](O)CO.C[C@@H](O[C@H]1OCCN(Cc2nn(P(=O)(O)O)c(=O)[nH]2)[C@H]1c1ccc(F)cc1)c1cc(C(F)(F)F)cc(C(F)(F)F)c1 [Fosaprepitant dimeglumine] | significant inhibition effect
24 | CC(=O)Oc1cc2c(s1)CCN(C(C(=O)C1CC1)c1ccccc1F)C2 (stereo not shown) [Prasugrel (Effient), Prasugrel] | significant inhibition effect
25 | Cc1nc2c([nH]1)-c1ccccc1N(C(=O)c1ccc(NC(=O)c3ccccc3-c3ccccc3)cc1)CC2 [Conivaptan HCl (Vaprisol), Conivaptan HCl] | significant inhibition effect
26 | NS(=O)(=O)c1cc2c(cc1Cl)N=CNS2(=O)=O [Chlorothiazide] | significant inhibition effect
27 | CC(C)(Sc1cc(C(C)(C)C)c(O)c(C(C)(C)C)c1)Sc1cc(C(C)(C)C)c(O)c(C(C)(C)C)c1 [Probucol] | significant inhibition effect
28 | N=C(N)c1ccc2cc(OC(=O)c3ccc(N=C(N)N)cc3)ccc2c1 [Nafamostat mesylate] | significant inhibition effect
29 | CC1CNc2c(cccc2S(=O)(=O)N[C@@H](CCCNC(=N)N)C(=O)N2CC[C@@H](C)C[C@@H]2C(=O)O)C1 (stereo partly shown) [Argatroban] | significant inhibition effect
30 | CCCCC1=NC2(CCCC2)C(=O)N1Cc1ccc(-c2ccccc2-c2nnn[nH]2)cc1 [Irbesartan (Avapro), Irbesartan] | significant inhibition effect
31 | CCCC(CCC)C(=O)[O-].[Na+] [Valproic acid sodium salt] | significant inhibition effect
32 | CCOC(=O)[C@H](CCc1ccccc1)N[C@H]1CCCN2CCC[C@@H](C(=O)O)N2C1=O [Cilazapril monohydrate (Inhibace), Cilazapril monohydrate] | significant inhibition effect
33 | C=C1CC[C@H](O)C/C1=C/C=C1\CCC[C@]2(C)[C@@H]([C@H](C)CCCC(C)C)CC[C@@H]12 [Vitamin D3 (Cholecalciferol), Cholecalciferol] | significant inhibition effect
34 | CCOC(=O)OC(C)OC1=C(C(=O)Nc2ccccn2)N(C)S(=O)(=O)c2ccccc21 (stereo not shown) [Ampiroxicam] | significant inhibition effect

From patent publication US20170304388A1, “NEW INDICATION OF CARDIOVASCULAR DRUGS FOR PREPARATION OF CANCER INHIBITION PHARMACEUTICAL COMPOSITION” (LAUNX BIOMEDICAL CO., LTD., priority 2014, published 2017)
